Reference: article PMC13586308, “Cell type–selective targeting by heterobifunctional protein binders via in-cell enrichment” (Nature Communications, 2026)
Like-named read-outs stand apart in the source and are kept apart here.

Legend:
[1] = cell uptake assay (LC-MS/MS) in MV4-11
gene expression = assay: RNA sequencing, MV4-11; format: cell-based, human; settings: MV4-11, 6 h
Method: RNA was isolated using the Monarch Total RNA Isolation Kit. RNA quality was assessed using an Agilent TapeStation. All samples had calculated RINe values > 6 with a flat baseline. […] Samples were demultiplexed, and FastQ files were generated. Raw FASTQ reads were quality-filtered using fastp v1.3.2 to remove adapters, low-quality bases (Phred ≤ 5 in > 50% of read) and poly-N regions (> 10% N bases), retaining reads with Q20 ≥ 95% and Q30 ≥ 90%. GC content was calculated for clean reads. Filtered sequence reads were aligned to the human reference genome GRCh38 using HISAT2 v2.2.1, guided by GTF annotation. Mapped data were summarized on the gene level as Fragments Per Kilobase of transcript sequence per Millions base pairs sequenced (FPKM). Gene counts were quantified using featureCounts v2.0.6. Further data evaluation, normalization and pairwise differential expression analyses was done by DESeq2. For clustering, all differentially expressed genes were pooled as the differential gene set. FPKM values of genes were hierarchically clustered, rows were homogenized as Z-scores. For enrichment analysis of the differential expressed genes, cluster Profiler (Yu G, 2012) software was used on Gene Ontology (http://www.geneontology.org/) terms reflecting biological processes.

[2] = in vitro metabolic study (intrinsic clearance); format: in vitro ADME; settings: intrinsic clearance (Clint) study, rebuttal letter
Source text: 4.2. To strengthen the paper, the authors should consider conducting in vivo experiments to […]
a more comprehensive understanding of the therapeutic potential and pharmacokinetic […]
The current compounds were designed for mechanistic studies, not for in vivo experiments. To assess the possibility of animal studies we conducted an in vitro metabolic study for the two most advanced compounds (a1dj and b3c). […]
labile (see below). While we agree that it is exciting to explore the influence of the CellTrap effect on pharmacokinetic properties this must be explored in follow up studies, which require substantial medicinal chemistry optimization. With the current compounds we believe animal experiments are ethically not warranted.
4.3. Are there specific residues essential for the observed cooperativity? If so, empirically mapping these mutants and testing for a reduction in binding would help validate the structures and provide clues to the translatability of the CellTrap mechanism. […]
mediate the direct protein contacts to BRD4. To explore this, we measured binding of the homolog FKBP51, which differs in the loop/strand regions, to BRD4. […]
cooperativity for any compound, strongly supporting the relevance of the crystallographically observed contact. We discussed this in the text as:
In both ternary complexes, contacts to BRD4BD1 are formed by the tip of the so called 80s loop of […]

[3] = test system: FKBP and BRD4 family members; assay: global proteomics after PROTAC treatment, MV4-11; format: cell-based, Homo sapiens
Method: Cell pellets equivalent to those used in the cell uptake assay were resuspended in 220 μL of 50 mM Tris pH 8.0, 2% SDS for 30 min at 850 rpm at RT, and centrifuged at 15000 g for 15 min. […] The supernatant was reduced with 5 mM DTT at 37 °C for 30 min then alkylated with 15 mM iodoacetamide at room temperature for 30 min in the dark. 150 μl of the solutions were subjected to a Protein Aggregation Capture digestion protocol using amine magnetic beads ([…]) and a King Fischer instrument (Thermo Scientific). In short, soluble proteins are captured on the magnetic beads and washed prior to the addition of 1/50 (w/w) trypsin (Promega) for an overnight digestion at 37 °C and 850 rpm. On the consecutive day, digested peptides are released, and the peptide concentration of the supernatants determined using a fluorimetric assay (Pierce). 200 ng peptide was loaded on Evotips (Evosep Biosystems). Peptides were separated on an Evosep One LC system coupled to a timsTOF Pro 2 instrument (Bruker) using a 30-sample-per-day method (44 min gradient). Peptides were resolved on an 8 cm, 1.5 μm x 150 μm Performance column (Evosep Biosystems). […] The relaxed-prot-inf option was used for library-free processing of the data. […] Match between runs (MBR) was enabled, and the normalization option switched on.

BRD4^BD2 = molecular target: T1, BRD4^BD2 (Homo sapiens, UniProt O60885); assay: competitive fluorescence polarization assay, BRD4 BD2 -/+ presenter protein; format: binding; settings: for α BRD4^BD2 (binding cooperativity factor): ratio of binding in absence or presence of FKBP12
T1 construct: to the isolated BD1 and BD2 domains of BRD2, BRD3 and BRD4

[4] = test system: human myeloma cell lines (HMCL); assay: cell viability, panel of human myeloma cell lines +/- FKBP12 PROTAC; format: cell-based; settings: all myeloma cell lines tested
MYC mRNA = assay: wash-off experiment, MYC mRNA in MV4-11; format: cell-based, human
PNT1A cells [5] = assay: CellTiter-Glo cell viability, PNT1A; format: cell-based; settings: concentrations of up to 1 µM
PNT1A cells [6] = assay: co-culture live cell microscopy cell count, PNT1A; format: cell-based; settings: all concentrations
[7] = 15 µM FKBP51FK1, read-out: Binding to BRD4BD2 + FKBP51FK1 Kd
[8] = absence of FKBP12, 2 nM JQ1-FL tracer, read-out: Binding to BRD4^BD2 - FKBP12 Kd
[9] = absence of FKBP51FK1 (SI Table 3), read-out: Binding to BRD4BD2 - FKBP51FK1 Kd
[10] = presence of 15 µM FKBP12, read-out: Binding to BRD4^BD2 + FKBP12 Kd (converted)

Row | Compound | effect of prior BRD4 depletion on cellular compound levels ([1]; BRD4-degrading PROTAC 43) | concentration in the cellular fraction ([1]; MV4-11, 10 nM a1dj 2 h, mean across four independent experiments) [nM] | reduction of intracellular accumulation upon FKBP12 degradation by PROTAC 5a1, mean ([1]; MV4-11, 100 nM 5a1) [%] | approximated concentration in the cellular fraction ([1]; MV4-11, earlier manuscript version quoted in rebuttal) [µM] | additional cellular enrichment mediated by other FKBPs ([1]; abolished by competition with 10 µM 18-(S)Me) [%] | FKBP12-mediated share of cellular accumulation ([1]; abolished by prior FKBP12 depletion, earlier manuscript version quoted in rebuttal) [%] | differentially expressed genes compared to JQ1-treated cells (gene expression) | in vitro metabolic stability [2] | effect on BRD4 levels by global proteomics [3] | Kd (BRD4^BD2; [7]) [nM] | Kd (BRD4^BD2; [8]) [nM] | Kd (BRD4^BD2; [9]) [nM] | Kd (BRD4^BD2; [10]) [nM] | α BRD4^BD2 (binding cooperativity factor) (BRD4^BD2) | cytotoxicity upon depletion of FKBP12 compared to JQ1 [4] | persistence of MYC repression after compound wash-out (MYC mRNA) | effect on PNT1A viability (PNT1A cells [5]) | effect on PNT1A cells in co-culture (PNT1A cells [6])
1 | Cc1sc2c(c1C)C(c1ccc(Cl)cc1)=NC(CC(=O)NCCOCCn1cc(COCC3CN(C(C)c4ccccn4)C(=O)C4CCCC3N4S(=O)(=O)c3cc(Cl)cc(Cl)c3)nn1)c1nnc(C)n1-2 (centres unmarked) [a1dj] | did not affect cellular compound levels | 1680 ± 350 | 51 | > 1.8 | 22 | 58 | about 300 genes | metabolically labile | did not affect BRD4 levels | 1000 ± 500 | 400 ± 90 | 150 ± 50 | 90 | 4.4 | almost identical to JQ1 | up to 24 h | – | –
2 | Cc1sc2c(c1C)C(c1ccc(Cl)cc1)=NC(CC(=O)N1CCC3(CC1)CC(n1cc(C4CN(Cc5ccccn5)C(=O)C5CCCC4N5S(=O)(=O)c4cc(Cl)cc(Cl)c4)nn1)C3)c1nnc(C)n1-2 (centres unmarked) [a13c] | – | – | – | – | – | – | – | – | – | 190 ± 30 | 2300 ± 400 | 1600 ± 400 | 1900 | – | – | – | did not affect | unaffected
3 | Cc1sc2c(c1C)C(c1ccc(C#CCNC(=O)COCCn3cc(C4CN(Cc5ccccn5)C(=O)C5CCCC4N5S(=O)(=O)c4cc(Cl)cc(Cl)c4)nn3)cc1)=NC(CC(=O)OC(C)(C)C)c1nnc(C)n1-2 (centres unmarked) [b3c] | – | – | – | – | – | – | about 300 genes | metabolically labile | – | 250 ± 70 | 150 ± 20 | 120 ± 40 | 13 | 12 | – | – | – | –
